Laboratory results as given in ChEMBL document CHEMBL4229325, “Angiogenesis and cancer stem cells: New perspectives on therapy of ovarian cancer” (Eur J Med Chem, 2017).

Assays:
[1] = Growth inhibition of human ovarian epithelial cancer cells at 0.5 uM in presence of 20 nM PTX; format: functional
[2] = Cytotoxicity against human A2780/DX cells assessed as cell viability at 4 uM incubated for 72 hrs by MTT assay; format: functional; conditions: read-out: Activity
[3] = Growth inhibition of human ovarian cancer stem cells at 0.5 uM in presence of 20 nM PTX; format: functional
2008 [4] = test: Cytotoxicity against human OV2008 cells assessed as reduction in cell viability incubated for 72 hrs by MTT assay; format: functional, cell-based; conditions: Homo sapiens, 2008, 72 h
2008 [5] = test: Cytotoxicity against human OV2008 cells assessed as reduction in cell viability incubated for 48 hrs by MTT assay; format: functional, cell-based; conditions: Homo sapiens, 2008, 48 h
2008 [6] = test: Cytotoxicity against human OV2008 cells assessed as reduction in cell viability incubated for 24 hrs by MTT assay; format: functional, cell-based; conditions: Homo sapiens, 2008, 24 h
[7] = Cytotoxicity against human A2780/DX cells assessed as cell viability at 8 uM incubated for 72 hrs by MTT assay; format: functional; conditions: read-out: Activity
NCI/ADR-RES [8] = test: Cytotoxicity against human NCI-ADR-RES cells assessed as cell viability at 8 uM incubated for 72 hrs by MTT assay; format: functional; conditions: read-out: Activity
OVCAR-8 [9] = test: Cytotoxicity against human OVCAR8 cells assessed as cell viability level at 4 uM incubated for 72 hrs by MTT assay; format: functional
OVCAR-8 [10] = test: Cytotoxicity against human OVCAR8 cells assessed as cell viability level at 8 uM incubated for 72 hrs by MTT assay; format: functional
NCI/ADR-RES [11] = test: Cytotoxicity against human NCI-ADR-RES cells assessed as cell viability at 4 uM incubated for 72 hrs by MTT assay; format: functional; conditions: read-out: Activity
[12] = Cytotoxicity against human A2780cis cells assessed as cell viability at 8 uM incubated for 72 hrs by MTT assay; format: functional; conditions: read-out: Activity
C13 = test: Antitumor activity against human C13 cells xenografted in mouse assessed as tumor volume at 5 mg/kg, ip dosed every other day for 3 weeks and measured every two days (reference value: 252.5 +/- 63.4 mm3); format: functional

CC[C@@H](C(=O)[C@@H](C)[C@@H](O)[C@H](C)[C@@H]1O[C@@H]([C@@H](CC)C(=O)O)CC[C@@H]1C)[C@H]1O[C@]2(C=C[C@@H](O)[C@]3(CC[C@@](C)([C@H]4CC[C@](O)(CC)[C@H](C)O4)O3)O2)[C@H](C)C[C@@H]1C [SALINOMYCIN]
growth inhibition (GI) [1]: 58% | viability at 4 µM [2]: 50% | growth inhibition (GI) [3]: 59% | IC50 2008 [4]: 3.2 µM | IC50 2008 [5]: 4.78 µM | IC50 2008 [6]: 7.44 µM | viability at 8 µM [7]: 43% | viability at 8 µM (NCI/ADR-RES [8]): 37% | Activity (OVCAR-8 [9]): 53% | Activity (OVCAR-8 [10]): 45% | viability at 4 µM (NCI/ADR-RES [11]): 50% | viability at 8 µM [12]: 55% | Activity (C13): 84.2 mm3
